The text below walks through data of ChEMBL document CHEMBL1201862, “PubChem BioAssay data set” (2004).

Holding throughout (experiment): NCI anticancer screen, dose series, 48 h
For assay [1], the system named is SF-295.
Assay [2] has as its system MDA-MB-231.
In assay [3] the test system is MOLT-4.
Assay [4] has as its system HCT-116.
In assay [5] the test system is SW-620.
Assay [6] deals with OVCAR-4.
In assay [7] the test system is HOP-92.
Assay [8] relates to CCRF-CEM.
For assay [9], the system named is NCI-H23.
Assay [10] concerns Malme-3M.
Assay [11] concerns UO-31.
Assay [12] has as its system HCT-15.
Assay [13] relates to SK-MEL-2.
Assay [14] concerns RPMI-8226.
Assay [15] deals with UACC-257.
Assay [16] relates to SF-268.
In assay [17] the test system is A549.
For assay [18], the system named is CAKI-1.
Assay [19] deals with BT-549.
The subject of assay [20] is Hs-578T.

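Cells were grown in 96-well plates and exposed to each compound for 48 hours at five concentrations; endpoints were interpolated linearly between bracketing concentrations, or set to the highest concentration if not reached. The concentration for 50% growth inhibition is given as GI50.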 Calls of active or inactive are those of the source. Rule as the data show it: active = GI50 up to about 1.1 µM and inactive = higher.

For the molecule `C=C1CC/C=C(\C)C(=O)C[C@@H]2[C@@H]1CC2(C)C` [BUDDLEDIN C], the GI50 in [1] is 15.5 µM (inactive); in assay [2], 7.53 µM (inactive); in [3], 0.184 µM (active); in assay [4], 1.17 µM (inactive); in [5], 1.1 µM (active); in [6] it was 0.743 µM (active). Further, the GI50 in assay [7] was 1.97 µM (inactive); in assay [8] it was 0.0944 µM (active); in assay [9], 5.2 µM (inactive); in assay [10], 2.48 µM (inactive); in assay [11], 2.62 µM (inactive); in [12], 0.689 µM. Moreover, the GI50 was 17.5 µM (inactive) in assay [13]; 2.02 µM (inactive) in assay [14]; 4.66 µM (inactive) in assay [15]; 14.1 µM (inactive) in assay [16]; 13.9 µM (inactive) in assay [17]; 1.38 µM (inactive) in assay [18]. The GI50 in assay [19] was 2.45 µM (inactive).

`CC(C)=CCC/C(C)=C/COC(C)(C)C1=CCC(C)CC1.CC(C)=CCC/C(C)=C/COC1CC(C)CCC1=C(C)C` (centres undefined): the GI50 is > 100 µM (inactive) in [1]; 18.2 µM (inactive) in assay [3]; > 100 µM (inactive) in assay [4]; > 100 µM (inactive) in assay [5]; > 100 µM (inactive) in assay [6]; > 100 µM (inactive) in assay [20]. Further, the GI50 in assay [7] is > 100 µM (inactive); in assay [9], > 100 µM (inactive); in assay [10] it was > 100 µM (inactive); in assay [11], > 100 µM (inactive); in [12], above 100 µM; in assay [14] it was 36.7 µM (inactive). The GI50 in assay [15] is 63.8 µM (inactive); in assay [16] it was > 100 µM (inactive); in assay [17], > 100 µM (inactive); in assay [18] it was > 100 µM (inactive); in [19] it was > 100 µM (inactive).

For `O=C1C(CN2CCCCC2)CCCC1CN1CCCCC1` (centres undefined), the GI50 in assay [2] is 18.5 µM (inactive); in [4], 15.4 µM (inactive); in assay [5] it was 5.45 µM (inactive); in [6] it was 14.4 µM (inactive); in assay [20], 23.3 µM (inactive); in assay [9], 22.9 µM (inactive). The GI50 in [10] was 8.07 µM (inactive); in assay [11], > 56.2 µM (inactive); in assay [12], 18.3 µM; in assay [14] it was 2.24 µM (inactive); in assay [15] it was 17.2 µM (inactive); in assay [17] it was > 92 µM (inactive). Further, in assay [19], the GI50 is 16.4 µM (inactive).

Turning to `Cn1c(-c2ccccc2)cc(-c2ccc3c(c2)OCO3)c1-c1cccs1`, the GI50 in assay [1] is > 100 µM (inactive); in assay [3], > 100 µM (inactive); in assay [4] it was 96.8 µM (inactive); in assay [5], > 100 µM (inactive); in assay [6], > 100 µM (inactive); in assay [20], > 100 µM (inactive). Moreover, the GI50 in assay [7] is > 100 µM (inactive); in [8], > 100 µM (inactive); in assay [9], 64.7 µM (inactive); in assay [11], > 100 µM (inactive); in assay [12] it was above 100 µM; in assay [13], > 100 µM (inactive). The GI50 in assay [14], in assay [15], in [16], in assay [17] and in assay [19] was > 100 µM (inactive) in each case.

Take `COc1ccc2c(c1)CC[C@@H]1[C@@H]2CC[C@]2(C)C(=O)/C(=C/c3ccc(OC)c(OC)c3)C[C@@H]12`: the GI50 in [1] was > 100 µM (inactive); in assay [2], > 100 µM (inactive); in assay [3] it was > 100 µM (inactive); in [4], 65.9 µM (inactive); in assay [5] it was > 100 µM (inactive); in assay [6], > 100 µM (inactive). In addition, the GI50 is 97.5 µM (inactive) in assay [7]; 97.9 µM (inactive) in assay [9]; > 100 µM (inactive) in assay [10]; > 100 µM (inactive) in assay [11]; above 100 µM in [12]; > 100 µM (inactive) in assay [13]. Further, the GI50 was 56.2 µM (inactive) in assay [14], > 100 µM (inactive) in [17], > 100 µM (inactive) in assay [18] and > 100 µM (inactive) in assay [19].

On to `S=C(NN=C1NCCCN1)Nc1ccccc1`, for which the GI50 in assay [1] was > 100 µM (inactive); in assay [3], 48.3 µM (inactive); in assay [4], > 100 µM (inactive); in [5], > 100 µM (inactive); in [6], > 100 µM (inactive); in [20], > 100 µM (inactive). Moreover, the GI50 in assay [7] is > 100 µM (inactive); in assay [8] it was 43.3 µM (inactive); in assay [9] it was > 100 µM (inactive); in assay [10], > 100 µM (inactive); in assay [11], > 100 µM (inactive); in assay [12], above 100 µM. In addition, the GI50 in assay [13] was > 100 µM (inactive); in [14], 28.2 µM (inactive); in assay [15] it was > 100 µM (inactive); in assay [16], > 100 µM (inactive); in [17], > 100 µM (inactive); in assay [18] it was > 100 µM (inactive). Also, the GI50 in [19] was > 100 µM (inactive).

With `O=C(O)C(C1NCCS1)N1Cc2ccccc2C1` (centres undefined), the GI50 in [1], in assay [2], in [3], in [4], in assay [5] and in assay [6] was > 100 µM (inactive) throughout. Also, the GI50 in [7] was > 100 µM (inactive); in assay [8], > 100 µM (inactive); in assay [9] it was > 100 µM (inactive); in assay [10] it was > 100 µM (inactive); in assay [11], > 100 µM (inactive); in [12], above 100 µM. Also, the GI50 in assay [13], in assay [14], in assay [15], in [17], in assay [18] and in assay [19] was > 100 µM (inactive) in each case.

For the molecule `O=C(C(=C(I)I)c1ccccc1)c1ccccc1`, the GI50 in [1] is 21.7 µM (inactive); in assay [3], 19.8 µM (inactive); in assay [4], 17.1 µM (inactive); in assay [5], 28.8 µM (inactive); in assay [6], 39.9 µM (inactive); in assay [20] it was 16.1 µM (inactive). Moreover, the GI50 is 33 µM (inactive) in assay [7]; 1.08 µM (active) in assay [8]; 21 µM (inactive) in assay [9]; 19.7 µM (inactive) in assay [10]; 20.8 µM (inactive) in [11]; 29.9 µM in assay [12]. The GI50 in assay [13] is 16.1 µM (inactive); in assay [14], 19.5 µM (inactive); in assay [15], 37.4 µM (inactive); in assay [16], 22.6 µM (inactive); in assay [17], 36.9 µM (inactive); in assay [18], 38.4 µM (inactive). Besides, the GI50 in [19] was 55.7 µM (inactive).

On to `NCC1Nc2ccccc2[C@@H](O)C1O` (some centres undefined), for which the GI50 in [1], in assay [2], in assay [3], in assay [4], in assay [5] and in assay [6] was > 100 µM (inactive) throughout. In addition, the GI50 in assay [20], in assay [7], in assay [8], in assay [9], in assay [10] and in assay [11] was > 100 µM (inactive) each time. The GI50 in [12] is above 100 µM; in [13], > 100 µM (inactive); in assay [14], > 100 µM (inactive); in assay [15], > 100 µM (inactive); in assay [16], > 100 µM (inactive); in assay [17] it was > 100 µM (inactive). Besides, in assay [18], the GI50 is > 100 µM (inactive).

Consider `COc1ccccc1N1CCN(S(=O)(=O)c2ccc(Cl)cc2)C1=N`, for which the GI50 is > 100 µM (inactive) in [1]; 37.1 µM (inactive) in assay [2]; 43 µM (inactive) in assay [3]; 27.9 µM (inactive) in assay [4]; 64.6 µM (inactive) in [5]; 87.9 µM (inactive) in assay [6]. The GI50 was 78 µM (inactive) in assay [20]; 60 µM (inactive) in assay [9]; 33.3 µM (inactive) in [11]; 62.4 µM in assay [12]; 57.4 µM (inactive) in [13]; 93.8 µM (inactive) in assay [14]. In addition, the GI50 in [15] was 41.6 µM (inactive); in assay [16] it was > 100 µM (inactive); in assay [17], 34.2 µM (inactive); in [18], > 100 µM (inactive); in [19], > 100 µM (inactive).

Turning to `Cc1ccc(CCCC(=O)O)cc1C`, the GI50 in [1], in assay [2], in assay [3], in assay [4], in assay [5] and in [6] was > 100 µM (inactive) each time. For the same molecule, the GI50 in assay [7] is > 100 µM (inactive); in assay [8], > 100 µM (inactive); in assay [9], > 100 µM (inactive); in assay [10] it was > 100 µM (inactive); in [11] it was > 100 µM (inactive); in assay [12], above 100 µM. Also, the GI50 in [13] was > 100 µM (inactive); in assay [14], > 100 µM (inactive); in assay [15], > 100 µM (inactive); in [16], 63.7 µM (inactive); in assay [17], > 100 µM (inactive); in assay [18], > 100 µM (inactive). Also, the GI50 in assay [19] was > 100 µM (inactive).

Take `O=C1CSc2ccnc(=O)n21`: the GI50 in assay [3], in assay [4], in assay [5], in assay [6], in assay [20] and in [7] was > 100 µM (inactive) in each case. Also, the GI50 in assay [8], in assay [9], in [10], in assay [11], in [14] and in [15] was > 100 µM (inactive) in each case. Also, the GI50 in assay [16], in assay [17], in [18] and in assay [19] was > 100 µM (inactive) in each case.
